Patent US20080287371A1, “MACROCYCLIC ANTAGONISTS OF THE MOTILIN RECEPTOR FOR MODULATION OF THE MIGRATING MOTOR COMPLEX” (Tranzyme Pharma Inc., priority 2007, published 2008)
“Also recorded” adds a separate entry of the source.

How the values were obtained:
[1] = tested on: MMC; details: dog; cited from earlier work
[2] = tested on: fundic tone / gastric accommodation; experiment: Animal model of fundic accommodation (Method E, barostat, milk meal); type: in vivo, Beagle dogs
Description: Fundic accommodation in response to a 200 mL milk meal was measured using a barostat. This can be considered as a model for functional dyspepsia, at least some occurrences of which is known to be a result of poor gastric accommodation (Tack, J.; Piessevaux, H.; Coulie, B.; Caenepeel, P.; Janssens, J. Gastroenterology 1998, 115, 1346-1352; DiStefano, M.; Micelli, E.; Mazzocchi, S.; Tana, P.; Corazza, G. R. Eur. Rev. Med. Pharmacol. Sci. 2005, 9, 23-28; Kindt, S.; Tack, J. Gut 2006, 55, 1685-1691; van den Elzen, B. D.; Boeckxstaens, G. E. Aliment. Pharmacol. Ther. 2006, 23, 1499-1510.). The described method is based upon a literature method. (Meulemans A. Schuurkes J. Neurogastroenterol. Motil. 1995, 7, 151-155.) The use of gallbladder volume has been linked to the motilin effect in functional dyspepsia and also can be used as a biomarker to test the effect of an antagonist on FD in humans. (Kamerling, I. M. C.; Van Haarst, A. D.; De Kam, M. L.; Cohen, A. F.; Masclee, A. A. M.; Burggraaf, J. Aliment, Pharmacol. Ther. 2004, 19, 797-804.) Other methods can also be utilized for this assessment and have been reviewed. (DeSchepper, H. U.; Cremonini, F.,; Chitkara, D.; Camilleri, M. Neurogastroenterol. Motil. 2004, 16, 275-285.) The dog is often used as an appropriate model for GI diseases due to the similarity in the alimentary tracts between dogs and humans. Additionally, the dog motilin receptor has been identified and characterized with the expression profile determined. It shares 71% homology to the human receptor and 72% to the rabbit receptor. (Ohshiro, H.; Nonaka, M.; Ichikawa, K. Regul. Pept. 2008, 146, 80-87.)
Beagle dogs were trained to stand quietly in Pavlov frames. Each was implanted using the following procedure with a gastric and duodenal cannula under general anesthesia with standard aseptic precautions. After a medium laparotomy, an incision was made through the gastric wall in the longitudinal direction between the greater and the lesser curvature, 2 cm above the nerves of Latarjet. The gastric cannula (diameter 18 mm) was secured to the gastric wall by means of an appropriate suture and then brought out via a stab wound at the left quadrant of the hypochondrium. The duodenal cannula (diameter 4 mm) was implanted at about 12 cm distal to the pylorum. An incision of approximately 1 cm was made through the duodenal wall 3 cm distally from the site of implantation. The cannula was brought into the duodenum though this incision. The top of the cannula was brought out of the duodenal wall at the place of implantation and secured to the wall via suture. Afterwards, the duodenum was closed and the duodenal cannula was brought out via a stab wound at the right quadrant of the hypochondrium. Dogs were allowed a recovery period of 2 weeks during which they were treated with antibiotics.
Variations in gastric tone were measured by recording changes in the volume of air within an intragastric bag maintained at constant pressure (6 mm Hg) by a barostat. The barostat consists of an air injection system which is connected by a double-lumen polyvinyl tube to an ultrathin flaccid polyethylene bag with maximum volume of approximately 700 mL. Gastric tonic contractions cause the barostat to withdraw air to maintain the pressure, while relaxation triggers air injection to maintain pressure. In that manner, intrabag volume is an inverse measure of proximal gastric tone. Differences in gastric tone were recorded using a computer. […]

[3] = tested on: post-prandial gastrointestinal activity; experiment: Strain gauge animal model (Method F): post-prandial gastrointestinal activity in fed dogs; type: in vivo, beagle dogs
Description: Gastrointestinal motility was measured for 24 hours by telemetry in freely moving beagle dogs instrumented with strain gauges on both the antrum and duodenum. The method utilized for the strain gauges was based upon that in the literature. (Edelbroek, M.; Schuurkes, J.; De Ridder, W.; Horowitz, M.; Dent, J.; Akkermans, L. Dig. Dis. Sci. 1995, 40, 901-911; Briejer, M. R.; Prins, N. H.; Schuurkes, J. A. Neurogastroenterol. Motil. 2001 13, 465-472.) Analogous methods that can be used are known. (Dog: Itohb, Z.; Honda, R.; Takeuchi, S.; Aizawa, I.; Takayanagi, R. Gastroenterol. Jpn. 1977, 12, 275-283; Iwai, T.; Nakamura, H.; Takanashi, H.; et al. Can. J. Physiol. Pharmacol. 1998, 76, 1103-1109; Dog and guinea pig, Ohno, T.; Kamiyama, Y.; Aihara, R.; Nakabayashi, T.; Mochiki, E.; Asao, T.; Kuwano, H. Neurogastroenterol. Motil. 2006, 18, 129-135; Rat: Bunce, K. T.; Elswood, C. J.; Ball, M. T. Br. J. Pharmacol. 1991, 102, 811-816; Guinea pig: Cooke, H. J.; Wang, Y. Z.; Frieling, T.; Wood, J. D. Am. J. Physiol. 1991, 261, G833-G840.) […]
Intraluminal pressures were recorded with a manometric assembly incorporating a sleeve sensor with a 4.8 cm length (outer diameter 5.4 mm) to monitor pyloric pressure waves. […]

[4] = tested on: migrating motor complex (MMC); experiment: Strain gauge animal model (Method F): migrating motor complex in fasted dogs; type: in vivo, beagle dogs; details: for effect on the migrating motor complex (MMC): fasted beagle dogs
Description: Gastrointestinal motility was measured for 24 hours by telemetry in freely moving beagle dogs instrumented with strain gauges on both the antrum and duodenum. The method utilized for the strain gauges was based upon that in the literature. (Edelbroek, M.; Schuurkes, J.; De Ridder, W.; Horowitz, M.; Dent, J.; Akkermans, L. Dig. Dis. Sci. 1995, 40, 901-911; Briejer, M. R.; Prins, N. H.; Schuurkes, J. A. Neurogastroenterol. Motil. 2001 13, 465-472.) Analogous methods that can be used are known. (Dog: Itohb, Z.; Honda, R.; Takeuchi, S.; Aizawa, I.; Takayanagi, R. Gastroenterol. Jpn. 1977, 12, 275-283; Iwai, T.; Nakamura, H.; Takanashi, H.; et al. Can. J. Physiol. Pharmacol. 1998, 76, 1103-1109; Dog and guinea pig, Ohno, T.; Kamiyama, Y.; Aihara, R.; Nakabayashi, T.; Mochiki, E.; Asao, T.; Kuwano, H. Neurogastroenterol. Motil. 2006, 18, 129-135; Rat: Bunce, K. T.; Elswood, C. J.; Ball, M. T. Br. J. Pharmacol. 1991, 102, 811-816; Guinea pig: Cooke, H. J.; Wang, Y. Z.; Frieling, T.; Wood, J. D. Am. J. Physiol. 1991, 261, G833-G840.)
Calibrated strain gauges (Schuurkes, J. A. J.; Van der Schee, E. J.; Grashuis, J. L.; Charbon, G. R. A. in Gastrointestinal Motility in Health and Disease; Duthie, H. L., Ed., MTP Press, Lancaster (UK), 1978, pp 647-654) and bipolar extracellular electrodes were implanted under aseptic conditions in each of four female beagle dogs. (Bass, P.; Wiley, J. N. J. Appl. Physiol. 1972, 32, 567-570.) The strain gauges were sutured onto the seromuscular layer parallel to the axis of the circular muscle, on the distal antrum (3 cm orad to the distal pyloric loop), proximal duodenum (3 cm and 6 cm aborad to the pylorus) and distal pyloric muscle loop. The bipolar extracellular electrodes were implanted onto the scrosal side of the distal antrum and proximal duodenum 2 cm orad and aborad to the pylorus. The lead wires were brought out via a subcutaneous tunnel in the left costal flank through a stab wound between the scapulae. Postsurgically, the lead wires were soldered to the connectors and protected appropriately.
In the same surgical incision, a gastrostomy and duodenostomy were performed. The gastrostomy was situated anteriorly in the midventral region between the lesser and greater curvature 2 cm orad to the nerve of Latarget and kept patent with a stainless steel cannula (internal diameter 1.4 cm, length 7.0 cm). The duodenostomy was situated 10 cm aborad to the pylorus and was kept patent with a cannula of smaller diameter (internal diameter 0.9 cm, length 7.5 cm). A thin tubing (outer diameter 2.2 mm) was pulled across the pylorus and attached to the caps of the gastric and duodenal cannulae in order to facilitate placement of the manometric assembly postsurgically. The greater omentum was wrapped around the cannulae to secure positioning and then the cannulae were tightly capped between experiments to permit normal feeding. Dogs were allowed to recover for at least two weeks prior to conduct of any experiments.
Intraluminal pressures were recorded with a manometric assembly incorporating a sleeve sensor with a 4.8 cm length (outer diameter 5.4 mm) to monitor pyloric pressure waves. (Dent, J. Gastroenterology 1976, 71, 263-267.) Four side holes were spaced at 1.6-cm intervals along the sleeve length. Side holes at each end of the sleeve were used to measure antral and duodenal pressures and transmucosal potential difference (TMPD) simultaneously. (Arndorfer, R. C.; Stef, J. J.; Doss, W. J.; Linehan, J. H.; Hogan, W. J. Gastroenterol. 1977, 73, 23-27.) Two additional side holes were placed 3.3 and 1.6 cm orad to the proximal end of the sleeve (antral sites) and another two side holes were placed 1.6 and 3.3 cm aborad to the distal end of the sleeve (duodenal sites). All channels were perfused with degassed distilled water at 0.3 mL/min, except for the side holes used to measure the antroduodenal TMPD, which were perfused with saline. […]

Row | SMILES | effect on the MMC [1] | gastric accommodation in response to the meal ([2]; 0.30 mg/kg i.v. bolus, continuous motilin infusion) | effect on motilin-induced fundic contraction ([2]; 0.30 mg/kg i.v., exogenous motilin 0.010 mg/kg/h i.v.) | AUC of fundic relaxation (0-to-5 min.) ([2]; 0.30 mg/kg i.v., motilin infusion 0.010 mg/kg/h i.v., milk meal, vehicle 18.7±3.3, n=4, p<0.05) [mL/h] | natural relaxation of the stomach in response to a meal (baseline, no motilin) ([2]; 0.1, 0.3 and 1.0 mg/kg, i.v., preliminary experiment) | motilin-induced increase in fundic tone, dose dependence ([2]; FIG. 3, cross-over design, N=6 dogs) | post-prandial CA, % of pre-drug baseline ([3]; 0.30 mg/kg i.v., 2 h after standard 75 g meal, during first hour, n=2, vehicle 106±10%) [%] | post-prandial activity ([3]; 0.30 mg/kg, i.v., fed dogs) | effect on the migrating motor complex (MMC) ([4]; 0.30 mg/kg, i.v.) | contraction amplitude (CA), % of baseline CA ([4]; 1.0 mg/kg i.v., after 4 h) [%] | contraction amplitude (CA), % of baseline CA ([4]; 1.0 mg/kg i.v., over the first hour) [%] | time to first MMC ([4]; 1.0 mg/kg i.v., controls 99±15 min, P<0.01, n=4, mean±SEM) [min] | effect on the migrating motor complex (MMC) ([4]; 1 mg/kg, i.v., N=6) | phase III activity of the MMC ([4]; 0.10, 0.30, 1.0 mg/kg, i.v., after overnight fast) | time until CA returned to baseline levels ([4]; 0.10 and 0.30 mg/kg doses, n=2) [h]
1 | Cc1[nH]cnc1CN1CCc2c(c3ccccc3n2C)C1=O [Alosetron] | block the MMC | – | – | – | – | – | – | – | – | – | – | – | – | – | –
2 | CC(C)[C@H]1NC(=O)[C@@H](Cc2cccc(C(F)(F)F)c2)NCCOc2ccccc2CCCNC(=O)[C@H](CN(C)C)NC1=O [Compound 502] | – | improved gastric accommodation | antagonized the effects of exogenous motilin; also recorded: antagonized the fundic contraction induced by infusion of exogenous motilin | 27.3 ± 3.5 | did not disturb this baseline phenomenon | prevented this increase in a dose-dependent manner | 58±4 | briefly attenuate post-prandial activity | lesser delay of MMCs | 52±21 | 5±2 | 225 ± 31 | delay the migrating motor complex (MMC) | suppressed the regular occurrence of phase III activity of the MMC in a dose-dependent manner | 3
